Results: ChEMBL document CHEMBL4507320, “Data for DCP probe NVS-MALT1” (2021)
The source made the active and inactive calls. The rule behind the calls is not given here.

Columns and labels:
[1] = molecular target: T1, Mucosa-associated lymphoid tissue lymphoma translocation protein 1 (Homo sapiens, UniProt Q9UDY8); assay: Human biochemical (TR-FRET) assay (high salt)
T1 sequence (Q9UDY8 whole entry): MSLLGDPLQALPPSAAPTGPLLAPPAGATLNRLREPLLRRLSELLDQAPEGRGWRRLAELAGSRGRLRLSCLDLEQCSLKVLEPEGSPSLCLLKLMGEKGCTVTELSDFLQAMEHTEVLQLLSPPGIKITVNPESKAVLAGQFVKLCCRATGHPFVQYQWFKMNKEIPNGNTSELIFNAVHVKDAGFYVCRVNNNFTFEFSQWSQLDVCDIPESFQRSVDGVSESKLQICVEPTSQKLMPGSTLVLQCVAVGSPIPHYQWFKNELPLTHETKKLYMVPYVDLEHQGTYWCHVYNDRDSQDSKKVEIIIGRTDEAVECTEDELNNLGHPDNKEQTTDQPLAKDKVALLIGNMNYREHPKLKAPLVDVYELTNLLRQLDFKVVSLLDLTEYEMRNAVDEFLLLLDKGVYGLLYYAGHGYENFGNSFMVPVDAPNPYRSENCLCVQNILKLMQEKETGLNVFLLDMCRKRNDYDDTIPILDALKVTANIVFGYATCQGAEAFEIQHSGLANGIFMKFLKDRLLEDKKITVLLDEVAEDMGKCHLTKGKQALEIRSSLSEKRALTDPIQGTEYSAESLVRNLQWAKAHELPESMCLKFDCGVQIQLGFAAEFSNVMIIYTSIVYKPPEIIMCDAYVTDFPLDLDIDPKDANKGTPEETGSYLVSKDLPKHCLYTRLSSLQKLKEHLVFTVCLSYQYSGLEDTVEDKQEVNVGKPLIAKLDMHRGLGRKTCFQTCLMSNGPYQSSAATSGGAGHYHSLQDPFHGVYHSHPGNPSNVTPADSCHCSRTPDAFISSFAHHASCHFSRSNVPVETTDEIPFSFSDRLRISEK

[2] = system: Tyrosine-protein kinase ABL1 (Homo sapiens), P00519 [Q252H]; details: Compound concentration 1000.0 nM
[3] = molecular target: Aurora kinase B (Homo sapiens) (UniProt Q96GD4); details: Compound concentration 1000.0 nM
[4] = molecular target: Calcium/calmodulin-dependent protein kinase type II subunit delta (Homo sapiens) (UniProt Q13557); details: Compound concentration 1000.0 nM
[5] = molecular target: Peripheral plasma membrane protein CASK (Homo sapiens) (UniProt O14936); details: Compound concentration 1000.0 nM
[6] = molecular target: Serine/threonine-protein kinase MRCK gamma (Homo sapiens) (UniProt Q6DT37); details: Compound concentration 1000.0 nM
[7] = system: Epidermal growth factor receptor (Homo sapiens), P00533 [T790M]; details: Compound concentration 1000.0 nM
[8] = molecular target: Eukaryotic translation initiation factor 2-alpha kinase 1 (Homo sapiens) (UniProt Q9BQI3); details: Compound concentration 1000.0 nM
[9] = molecular target: Mitogen-activated protein kinase 6 (Homo sapiens) (UniProt Q16659); details: Compound concentration 1000.0 nM
[10] = molecular target: Fibroblast growth factor receptor 2 (Homo sapiens) (UniProt P21802); details: Compound concentration 1000.0 nM
[11] = system: Receptor-type tyrosine-protein kinase FLT3 (Homo sapiens), P36888 [UNDEFINED MUTATION]; details: Compound concentration 1000.0 nM
[12] = system: Receptor-type tyrosine-protein kinase FLT3 (Homo sapiens), P36888 [N841I]; details: Compound concentration 1000.0 nM
[13] = molecular target: Tyrosine-protein kinase JAK1 (Homo sapiens) (UniProt P23458); details: Compound concentration 1000.0 nM
[14] = molecular target: Tyrosine-protein kinase JAK2 (Homo sapiens) (UniProt O60674); details: Compound concentration 1000.0 nM
[15] = molecular target: Mitogen-activated protein kinase kinase kinase kinase 2 (Homo sapiens) (UniProt Q12851); details: Compound concentration 1000.0 nM
[16] = molecular target: Mitogen-activated protein kinase kinase kinase kinase 3 (Homo sapiens) (UniProt Q8IVH8); details: Compound concentration 1000.0 nM
[17] = molecular target: MAP/microtubule affinity-regulating kinase 3 (Homo sapiens) (UniProt P27448); details: Compound concentration 1000.0 nM
[18] = molecular target: Myosin light chain kinase, smooth muscle (Homo sapiens) (UniProt Q15746); details: Compound concentration 1000.0 nM
[19] = molecular target: Serine/threonine-protein kinase 38 (Homo sapiens) (UniProt Q15208); details: Compound concentration 1000.0 nM
[20] = molecular target: Serine/threonine-protein kinase Nek11 (Homo sapiens) (UniProt Q8NG66); details: Compound concentration 1000.0 nM
[21] = molecular target: Mitogen-activated protein kinase 12 (Homo sapiens) (UniProt P53778); details: Compound concentration 1000.0 nM
[22] = molecular target: Cyclin-dependent kinase 15 (Homo sapiens) (UniProt Q96Q40); details: Compound concentration 1000.0 nM
[23] = molecular target: Serine/threonine-protein kinase pim-3 (Homo sapiens) (UniProt Q86V86); details: Compound concentration 1000.0 nM
[24] = molecular target: Protein kinase C delta type (Homo sapiens) (UniProt Q05655); details: Compound concentration 1000.0 nM
[25] = molecular target: cAMP-dependent protein kinase catalytic subunit PRKX (Homo sapiens) (UniProt P51817); details: Compound concentration 1000.0 nM
[26] = molecular target: Serine/threonine-protein kinase PRP4 homolog (Homo sapiens) (UniProt Q13523); details: Compound concentration 1000.0 nM
[27] = molecular target: Proto-oncogene tyrosine-protein kinase ROS (Homo sapiens) (UniProt P08922); details: Compound concentration 1000.0 nM
[28] = molecular target: SRSF protein kinase 3 (Homo sapiens) (UniProt Q9UPE1); details: Compound concentration 1000.0 nM
[29] = molecular target: Angiopoietin-1 receptor (Homo sapiens) (UniProt Q02763); details: Compound concentration 1000.0 nM
[30] = molecular target: Serine/threonine-protein kinase WNK3 (Homo sapiens) (UniProt Q9BYP7); details: Compound concentration 1000.0 nM
[31] = molecular target: Mitogen-activated protein kinase kinase kinase 20 (Homo sapiens) (UniProt Q9NYL2); details: Compound concentration 1000.0 nM
[32] = molecular target: 5-hydroxytryptamine receptor 2C (Homo sapiens) (UniProt P28335); details: Compound concentration 10.0 uM
[33] = molecular target: Alpha-2C adrenergic receptor (Homo sapiens) (UniProt P18825); details: Compound concentration 10.0 uM
[34] = molecular target: Alpha-1D adrenergic receptor (Homo sapiens) (UniProt P25100); details: Compound concentration 10.0 uM

Chain of Serine/threonine-protein kinase PRP4 homolog (Homo sapiens) (Q13523 whole entry): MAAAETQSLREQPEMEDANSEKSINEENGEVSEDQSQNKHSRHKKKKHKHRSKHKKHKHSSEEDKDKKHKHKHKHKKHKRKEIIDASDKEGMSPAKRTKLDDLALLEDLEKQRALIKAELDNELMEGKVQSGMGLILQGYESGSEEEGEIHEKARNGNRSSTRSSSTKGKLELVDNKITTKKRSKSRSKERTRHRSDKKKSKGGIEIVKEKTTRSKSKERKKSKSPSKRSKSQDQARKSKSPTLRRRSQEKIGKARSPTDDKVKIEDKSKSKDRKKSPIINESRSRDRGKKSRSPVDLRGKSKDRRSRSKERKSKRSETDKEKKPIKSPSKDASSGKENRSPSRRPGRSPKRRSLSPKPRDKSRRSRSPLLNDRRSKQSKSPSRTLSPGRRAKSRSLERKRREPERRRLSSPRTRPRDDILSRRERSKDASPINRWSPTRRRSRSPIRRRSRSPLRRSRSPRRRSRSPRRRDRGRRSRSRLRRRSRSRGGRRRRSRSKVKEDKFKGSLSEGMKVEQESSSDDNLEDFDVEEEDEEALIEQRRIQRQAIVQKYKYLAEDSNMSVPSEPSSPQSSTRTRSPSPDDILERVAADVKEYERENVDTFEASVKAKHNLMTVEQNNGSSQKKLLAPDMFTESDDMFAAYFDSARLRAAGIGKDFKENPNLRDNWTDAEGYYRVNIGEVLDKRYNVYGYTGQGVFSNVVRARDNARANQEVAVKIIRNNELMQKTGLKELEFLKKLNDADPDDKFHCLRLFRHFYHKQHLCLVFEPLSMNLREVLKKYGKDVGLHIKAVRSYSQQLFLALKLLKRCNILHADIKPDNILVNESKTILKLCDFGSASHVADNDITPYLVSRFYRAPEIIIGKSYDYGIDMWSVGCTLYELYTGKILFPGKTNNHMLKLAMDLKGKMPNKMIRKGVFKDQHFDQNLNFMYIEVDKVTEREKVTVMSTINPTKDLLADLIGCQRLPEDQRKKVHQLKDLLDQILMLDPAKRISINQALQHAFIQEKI
Chain of Mitogen-activated protein kinase 6 (Homo sapiens) (Q16659 whole entry): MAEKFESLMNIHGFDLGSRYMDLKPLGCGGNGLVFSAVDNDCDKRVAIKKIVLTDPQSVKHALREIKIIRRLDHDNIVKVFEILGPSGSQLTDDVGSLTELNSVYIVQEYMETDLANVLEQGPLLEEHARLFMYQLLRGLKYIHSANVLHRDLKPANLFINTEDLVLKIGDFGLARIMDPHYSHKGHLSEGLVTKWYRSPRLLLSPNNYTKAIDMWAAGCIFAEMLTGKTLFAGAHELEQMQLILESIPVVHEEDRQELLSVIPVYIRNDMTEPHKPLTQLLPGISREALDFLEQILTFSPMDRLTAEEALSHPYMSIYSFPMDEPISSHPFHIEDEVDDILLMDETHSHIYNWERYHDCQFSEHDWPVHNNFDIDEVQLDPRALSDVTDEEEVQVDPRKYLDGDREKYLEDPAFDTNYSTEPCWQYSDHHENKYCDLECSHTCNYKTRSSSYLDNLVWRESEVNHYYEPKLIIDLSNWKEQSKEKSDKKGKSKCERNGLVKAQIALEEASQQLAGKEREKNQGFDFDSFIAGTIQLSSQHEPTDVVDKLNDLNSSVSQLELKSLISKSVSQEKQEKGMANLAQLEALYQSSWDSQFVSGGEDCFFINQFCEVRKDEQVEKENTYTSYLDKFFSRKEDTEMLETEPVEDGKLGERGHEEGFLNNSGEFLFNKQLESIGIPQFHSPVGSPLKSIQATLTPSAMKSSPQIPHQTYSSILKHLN
Chain of 5-hydroxytryptamine receptor 2C (Homo sapiens) (P28335 whole entry): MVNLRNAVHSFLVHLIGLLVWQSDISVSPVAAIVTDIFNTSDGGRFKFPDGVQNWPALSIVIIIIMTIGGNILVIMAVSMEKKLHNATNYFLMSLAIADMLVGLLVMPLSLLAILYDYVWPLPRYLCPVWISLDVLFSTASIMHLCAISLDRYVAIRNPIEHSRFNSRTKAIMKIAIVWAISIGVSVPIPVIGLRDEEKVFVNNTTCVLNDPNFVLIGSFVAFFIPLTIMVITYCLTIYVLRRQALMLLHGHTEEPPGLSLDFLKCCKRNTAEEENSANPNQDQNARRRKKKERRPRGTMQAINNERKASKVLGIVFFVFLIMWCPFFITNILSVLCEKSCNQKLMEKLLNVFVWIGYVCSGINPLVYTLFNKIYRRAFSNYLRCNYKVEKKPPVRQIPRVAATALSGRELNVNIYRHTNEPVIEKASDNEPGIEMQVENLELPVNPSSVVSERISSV
Chain of Mitogen-activated protein kinase 12 (Homo sapiens) (P53778 whole entry): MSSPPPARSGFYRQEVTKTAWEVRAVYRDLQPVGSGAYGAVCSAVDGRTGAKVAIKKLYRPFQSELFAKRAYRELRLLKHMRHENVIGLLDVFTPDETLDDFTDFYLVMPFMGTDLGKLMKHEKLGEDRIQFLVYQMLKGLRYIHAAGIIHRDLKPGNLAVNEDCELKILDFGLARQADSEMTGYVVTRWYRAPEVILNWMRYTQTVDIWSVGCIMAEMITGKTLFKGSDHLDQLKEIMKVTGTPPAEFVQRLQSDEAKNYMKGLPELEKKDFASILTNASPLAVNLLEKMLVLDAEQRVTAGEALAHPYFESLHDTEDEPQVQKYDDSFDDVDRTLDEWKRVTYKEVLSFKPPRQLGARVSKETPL
Chain of Mitogen-activated protein kinase kinase kinase kinase 2 (Homo sapiens) (Q12851 whole entry): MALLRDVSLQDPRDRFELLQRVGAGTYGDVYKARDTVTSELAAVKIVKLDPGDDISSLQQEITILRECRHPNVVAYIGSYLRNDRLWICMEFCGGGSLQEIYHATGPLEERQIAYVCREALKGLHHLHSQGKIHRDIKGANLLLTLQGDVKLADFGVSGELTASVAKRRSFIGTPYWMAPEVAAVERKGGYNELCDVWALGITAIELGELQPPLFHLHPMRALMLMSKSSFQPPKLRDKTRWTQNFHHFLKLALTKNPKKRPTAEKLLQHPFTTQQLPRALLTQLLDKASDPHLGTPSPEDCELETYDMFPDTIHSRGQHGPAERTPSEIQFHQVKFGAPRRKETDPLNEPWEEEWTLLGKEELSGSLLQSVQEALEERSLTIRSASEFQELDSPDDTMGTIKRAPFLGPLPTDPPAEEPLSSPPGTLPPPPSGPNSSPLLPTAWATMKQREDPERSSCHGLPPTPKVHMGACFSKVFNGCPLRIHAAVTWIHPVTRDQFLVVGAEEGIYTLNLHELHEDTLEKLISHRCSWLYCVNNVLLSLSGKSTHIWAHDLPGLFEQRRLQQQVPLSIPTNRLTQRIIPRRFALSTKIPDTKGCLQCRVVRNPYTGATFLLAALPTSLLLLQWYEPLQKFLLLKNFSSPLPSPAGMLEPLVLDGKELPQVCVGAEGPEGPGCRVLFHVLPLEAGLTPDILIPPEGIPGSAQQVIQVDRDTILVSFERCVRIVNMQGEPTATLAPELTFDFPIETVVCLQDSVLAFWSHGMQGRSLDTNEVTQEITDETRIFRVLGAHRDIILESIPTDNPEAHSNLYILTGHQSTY
Chain of Fibroblast growth factor receptor 2 (Homo sapiens) (P21802 22-821 limits assumed): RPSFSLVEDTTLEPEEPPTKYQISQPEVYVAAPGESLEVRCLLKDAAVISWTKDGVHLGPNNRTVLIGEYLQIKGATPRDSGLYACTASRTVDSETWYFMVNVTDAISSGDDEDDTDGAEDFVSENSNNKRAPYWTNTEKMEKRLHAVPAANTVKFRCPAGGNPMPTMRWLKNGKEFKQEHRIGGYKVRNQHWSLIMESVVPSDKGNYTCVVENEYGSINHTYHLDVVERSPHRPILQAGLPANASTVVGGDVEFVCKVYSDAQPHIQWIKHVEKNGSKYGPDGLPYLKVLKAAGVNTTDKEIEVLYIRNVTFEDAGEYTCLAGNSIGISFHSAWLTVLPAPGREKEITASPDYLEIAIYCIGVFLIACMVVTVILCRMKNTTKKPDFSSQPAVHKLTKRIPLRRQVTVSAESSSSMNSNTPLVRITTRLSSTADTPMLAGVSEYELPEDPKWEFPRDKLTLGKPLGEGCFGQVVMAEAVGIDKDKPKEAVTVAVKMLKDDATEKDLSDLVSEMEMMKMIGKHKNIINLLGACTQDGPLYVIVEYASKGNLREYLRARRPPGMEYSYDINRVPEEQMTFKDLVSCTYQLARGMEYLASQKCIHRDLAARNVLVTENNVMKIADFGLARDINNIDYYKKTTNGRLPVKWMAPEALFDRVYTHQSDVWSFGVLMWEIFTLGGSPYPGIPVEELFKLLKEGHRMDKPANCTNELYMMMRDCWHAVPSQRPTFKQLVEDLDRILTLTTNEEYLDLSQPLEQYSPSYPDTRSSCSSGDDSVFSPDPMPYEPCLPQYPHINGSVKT
Chain of Alpha-2C adrenergic receptor (Homo sapiens) (P18825 whole entry): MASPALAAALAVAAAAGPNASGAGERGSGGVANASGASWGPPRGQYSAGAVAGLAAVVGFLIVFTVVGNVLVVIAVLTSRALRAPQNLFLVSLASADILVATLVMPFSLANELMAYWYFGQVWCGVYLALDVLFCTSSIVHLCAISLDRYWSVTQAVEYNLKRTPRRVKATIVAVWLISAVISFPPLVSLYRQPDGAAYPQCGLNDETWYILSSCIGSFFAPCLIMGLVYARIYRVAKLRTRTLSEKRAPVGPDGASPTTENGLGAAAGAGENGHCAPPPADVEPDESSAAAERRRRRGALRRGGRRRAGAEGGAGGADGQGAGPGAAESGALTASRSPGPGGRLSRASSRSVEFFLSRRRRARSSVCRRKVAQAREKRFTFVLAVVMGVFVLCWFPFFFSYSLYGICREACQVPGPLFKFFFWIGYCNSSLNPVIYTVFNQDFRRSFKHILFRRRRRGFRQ

Row | SMILES | IC50 [1] | residual activity [2] [%] | residual activity [3] [%] | residual activity [4] [%] | residual activity [5] [%] | residual activity [6] [%] | residual activity [7] [%] | residual activity [8] [%] | residual activity [9] [%] | residual activity [10] [%] | residual activity [11] [%] | residual activity [12] [%] | residual activity [13] [%] | residual activity [14] [%] | residual activity [15] [%] | residual activity [16] [%] | residual activity [17] [%] | residual activity [18] [%] | residual activity [19] [%] | residual activity [20] [%] | further results
1 | CO[C@@H](C)c1c(Nc2ccc([C@H](N(C)C(=O)C3CCS(=O)(=O)CC3)C(F)(F)F)cc2)cnc2cc(Cl)nn12 [NVS-MALT1] | 2.4 nM (active) | 100 | 91 | 86 | 100 | 87 | 90 | 100 | 92 | 91 | 85 | 23 | 100 | 100 | 100 | 99 | 100 | 95 | 83 | 100 | residual activity [21]: 98%; residual activity [22]: 74%; residual activity [23]: 86%; residual activity [24]: 79%; residual activity [25]: 88%; residual activity [26]: 100%; residual activity [27]: 77%; residual activity [28]: 100%; residual activity [29]: 84%; residual activity [30]: 95%; residual activity [31]: 100%; inhibition [32]: -4.22%; inhibition [33]: 4.48%; inhibition [34]: -6.69%
2 | CO[C@@H](C)c1c(Nc2ccc([C@@H](N(C)C(=O)C3CCS(=O)(=O)CC3)C(F)(F)F)cc2)cnc2cc(Cl)nn12 [NVS-MALT1-C] | 190 nM (active) | 100 | 74 | 100 | 100 | 86 | 100 | 100 | 91 | 84 | 59 | 57 | 89 | 98 | 100 | 94 | 100 | 98 | 88 | 100 | residual activity [21]: 92%; residual activity [22]: 94%; residual activity [23]: 97%; residual activity [24]: 90%; residual activity [25]: 84%; residual activity [26]: 91%; residual activity [27]: 82%; residual activity [28]: 100%; residual activity [29]: 90%; residual activity [30]: 84%; residual activity [31]: 100%; inhibition [32]: 3.25%; inhibition [33]: 1.97%; inhibition [34]: 3.2%
